What was measured:
[1] = DRUGMATRIX: Calcium Channel Type L, Dihydropyridine radioligand binding (ligand: [3H] Nitrendipine); type: cell membranes, Rattus norvegicus, Wistar, Cerebral cortex, Membrane; conditions: Not Active = under 50% inhibition at 10 µM
[2] = biological target: T1, C-C chemokine receptor type 4 (Homo sapiens, UniProt P51679); type: cell membranes, Chem-1, Membrane; conditions: chem-1; also: in other assays of this panel Not Active means under 50% inhibition at 10 µM
T1 sequence (P51679 whole entry): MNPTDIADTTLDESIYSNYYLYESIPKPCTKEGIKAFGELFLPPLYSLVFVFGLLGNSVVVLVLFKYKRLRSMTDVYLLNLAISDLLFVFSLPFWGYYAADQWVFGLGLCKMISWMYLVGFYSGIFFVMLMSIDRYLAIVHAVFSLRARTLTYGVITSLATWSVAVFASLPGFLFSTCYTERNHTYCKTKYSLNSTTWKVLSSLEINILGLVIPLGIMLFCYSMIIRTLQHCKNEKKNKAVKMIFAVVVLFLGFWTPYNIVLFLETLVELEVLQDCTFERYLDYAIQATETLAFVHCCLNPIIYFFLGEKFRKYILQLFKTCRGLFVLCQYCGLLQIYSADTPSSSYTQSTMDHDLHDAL

Insulin receptor = Insulin receptor (Rattus norvegicus, UniProt P15127); type: cell membranes, Wistar, Liver, Membrane; also: in other assays of this panel Not Active means under 50% inhibition at 10 µM
Sequence of Insulin receptor (P15127 27-759 limits assumed): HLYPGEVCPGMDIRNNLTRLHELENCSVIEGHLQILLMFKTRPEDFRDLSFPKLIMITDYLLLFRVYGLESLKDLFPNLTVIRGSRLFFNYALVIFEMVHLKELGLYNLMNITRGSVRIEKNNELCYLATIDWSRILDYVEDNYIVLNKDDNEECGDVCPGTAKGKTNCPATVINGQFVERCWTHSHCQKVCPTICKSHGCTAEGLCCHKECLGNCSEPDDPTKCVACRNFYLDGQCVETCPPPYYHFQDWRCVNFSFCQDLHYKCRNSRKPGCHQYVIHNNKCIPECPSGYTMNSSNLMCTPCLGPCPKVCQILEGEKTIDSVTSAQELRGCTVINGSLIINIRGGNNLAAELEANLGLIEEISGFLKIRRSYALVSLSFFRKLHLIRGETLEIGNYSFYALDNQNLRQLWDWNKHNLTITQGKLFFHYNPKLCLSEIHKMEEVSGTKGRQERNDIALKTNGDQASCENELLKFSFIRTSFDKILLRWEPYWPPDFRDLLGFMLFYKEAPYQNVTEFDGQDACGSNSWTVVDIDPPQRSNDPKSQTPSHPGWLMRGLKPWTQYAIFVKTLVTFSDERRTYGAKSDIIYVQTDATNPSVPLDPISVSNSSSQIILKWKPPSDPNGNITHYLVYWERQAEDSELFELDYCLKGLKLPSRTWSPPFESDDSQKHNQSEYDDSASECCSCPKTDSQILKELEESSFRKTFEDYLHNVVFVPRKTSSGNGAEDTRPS
Sequence of Insulin receptor (P15127 764-1383 limits assumed): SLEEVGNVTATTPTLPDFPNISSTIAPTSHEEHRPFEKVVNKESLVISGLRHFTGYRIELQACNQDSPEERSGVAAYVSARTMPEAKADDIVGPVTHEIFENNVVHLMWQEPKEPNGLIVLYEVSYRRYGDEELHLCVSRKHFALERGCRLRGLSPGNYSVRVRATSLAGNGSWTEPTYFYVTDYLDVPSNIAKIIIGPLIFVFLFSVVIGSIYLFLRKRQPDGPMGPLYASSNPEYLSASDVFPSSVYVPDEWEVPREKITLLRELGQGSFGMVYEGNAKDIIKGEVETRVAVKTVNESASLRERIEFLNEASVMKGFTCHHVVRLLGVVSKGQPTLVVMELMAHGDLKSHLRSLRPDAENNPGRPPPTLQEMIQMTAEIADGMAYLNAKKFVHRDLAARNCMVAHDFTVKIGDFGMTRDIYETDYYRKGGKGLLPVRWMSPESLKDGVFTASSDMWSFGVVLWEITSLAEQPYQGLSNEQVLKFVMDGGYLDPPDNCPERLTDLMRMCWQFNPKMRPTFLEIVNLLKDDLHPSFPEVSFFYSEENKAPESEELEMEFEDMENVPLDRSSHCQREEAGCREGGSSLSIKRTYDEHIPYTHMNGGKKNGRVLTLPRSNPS

Mu-type opioid receptor = Mu-type opioid receptor (Homo sapiens, UniProt P35372); assay: DRUGMATRIX: Opiate mu (OP3, MOP) radioligand binding (ligand: [3H] Diprenorphine); type: cell membranes, CHO-K1, Membrane; conditions: cho-k1; Not Active = under 50% inhibition at 10 µM
Sequence of Mu-type opioid receptor (P35372 whole entry): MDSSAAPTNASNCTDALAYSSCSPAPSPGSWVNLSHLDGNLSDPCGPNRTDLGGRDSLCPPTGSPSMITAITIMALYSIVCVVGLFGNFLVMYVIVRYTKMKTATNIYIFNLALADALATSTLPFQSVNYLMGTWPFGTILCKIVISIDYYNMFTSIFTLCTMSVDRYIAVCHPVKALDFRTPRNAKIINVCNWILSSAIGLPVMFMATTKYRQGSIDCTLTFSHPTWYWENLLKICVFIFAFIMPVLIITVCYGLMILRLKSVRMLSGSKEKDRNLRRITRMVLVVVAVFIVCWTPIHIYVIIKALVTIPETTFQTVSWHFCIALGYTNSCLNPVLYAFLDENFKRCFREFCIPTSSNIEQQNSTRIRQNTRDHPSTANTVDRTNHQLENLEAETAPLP

Cathepsin G = biological target: T2, Cathepsin G (Homo sapiens, UniProt P08311); assay: biochemical; type: tissue-based, Neutrophil; conditions: neutrophil;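 also: inhibition of Cathepsin G enzyme activity, tested on an AMC-conjugated peptide substrate; in other assays of this panel Not Active means under 50% inhibition at 10 µM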
T2 sequence (P08311 whole entry): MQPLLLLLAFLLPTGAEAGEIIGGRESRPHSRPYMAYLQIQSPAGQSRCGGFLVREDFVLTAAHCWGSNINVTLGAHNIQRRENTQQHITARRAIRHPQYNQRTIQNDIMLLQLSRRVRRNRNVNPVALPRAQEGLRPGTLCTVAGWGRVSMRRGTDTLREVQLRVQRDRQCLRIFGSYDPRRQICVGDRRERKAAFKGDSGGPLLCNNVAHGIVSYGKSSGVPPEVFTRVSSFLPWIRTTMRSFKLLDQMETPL

Adenosine receptor A1 = biological target: T3, Adenosine receptor A1 (Homo sapiens, UniProt P30542); type: cell membranes, CHO, Membrane; conditions: cho;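 also: radioligand binding assay at the adenosine A1 receptor, with DPCPX serving as the labelled ligand; in other assays of this panel Not Active means under 50% inhibition at 10 µM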
T3 sequence (P30542 whole entry): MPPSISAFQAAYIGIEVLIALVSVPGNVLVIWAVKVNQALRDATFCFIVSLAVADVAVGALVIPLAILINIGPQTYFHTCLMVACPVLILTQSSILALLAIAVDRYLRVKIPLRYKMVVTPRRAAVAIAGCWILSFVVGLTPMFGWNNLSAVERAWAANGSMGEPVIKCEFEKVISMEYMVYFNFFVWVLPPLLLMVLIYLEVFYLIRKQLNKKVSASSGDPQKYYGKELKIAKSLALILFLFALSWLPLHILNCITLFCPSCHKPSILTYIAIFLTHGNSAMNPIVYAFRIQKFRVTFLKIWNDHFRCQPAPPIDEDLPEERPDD

Cytochrome P450 3A4 = Cytochrome P450 3A4 (Homo sapiens, UniProt P08684); conditions: bti-tn-5b1-4; also: in other assays of this panel Not Active means under 50% inhibition at 10 µM
Sequence of Cytochrome P450 3A4 (P08684 whole entry): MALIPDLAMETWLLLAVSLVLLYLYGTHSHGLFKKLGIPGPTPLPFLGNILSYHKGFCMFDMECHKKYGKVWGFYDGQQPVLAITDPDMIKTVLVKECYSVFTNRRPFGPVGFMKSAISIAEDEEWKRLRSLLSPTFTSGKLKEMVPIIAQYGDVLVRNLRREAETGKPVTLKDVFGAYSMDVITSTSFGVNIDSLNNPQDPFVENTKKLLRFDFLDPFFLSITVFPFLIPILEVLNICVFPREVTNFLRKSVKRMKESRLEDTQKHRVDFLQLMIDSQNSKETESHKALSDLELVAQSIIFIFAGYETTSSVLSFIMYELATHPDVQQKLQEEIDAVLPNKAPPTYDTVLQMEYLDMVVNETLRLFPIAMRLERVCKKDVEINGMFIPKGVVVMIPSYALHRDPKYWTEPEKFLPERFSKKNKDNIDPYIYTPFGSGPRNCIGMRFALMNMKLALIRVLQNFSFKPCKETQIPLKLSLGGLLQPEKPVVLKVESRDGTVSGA

CC(C)(C#N)c1cc(Cn2cncn2)cc(C(C)(C)C#N)c1 [ANASTROZOLE]
Not Active: IC50 [1] | Ki [1] | IC50 [2] | IC50 (Insulin receptor) | IC50 (Mu-type opioid receptor) | IC50 (Cathepsin G) | IC50 (Adenosine receptor A1)

Cc1ccnc2c1NC(=O)c1cccnc1N2C1CC1 [NEVIRAPINE]
Not Active: IC50 [1] | Ki [1] | IC50 [2] | IC50 (Insulin receptor) | IC50 (Mu-type opioid receptor) | IC50 (Cathepsin G) | IC50 (Adenosine receptor A1) | IC50 (Cytochrome P450 3A4) | Ki (Cytochrome P450 3A4)

Oc1ccccc1 [PHENOL]
Not Active: IC50 [1] | Ki [1] | IC50 [2] | IC50 (Insulin receptor) | IC50 (Mu-type opioid receptor) | IC50 (Cathepsin G) | IC50 (Adenosine receptor A1) | IC50 (Cytochrome P450 3A4) | Ki (Cytochrome P450 3A4)

CCCCCCNC(=O)n1cc(F)c(=O)[nH]c1=O [CARMOFUR]
Not Active: IC50 [1] | Ki [1] | IC50 [2] | IC50 (Insulin receptor) | IC50 (Mu-type opioid receptor) | IC50 (Cathepsin G) | IC50 (Adenosine receptor A1) | IC50 (Cytochrome P450 3A4) | Ki (Cytochrome P450 3A4)

Nc1ccc(C(=O)O)c(O)c1 [AMINOSALICYLIC ACID]
Not Active: IC50 [1] | Ki [1] | IC50 [2] | IC50 (Insulin receptor) | IC50 (Mu-type opioid receptor) | IC50 (Cathepsin G) | IC50 (Adenosine receptor A1) | IC50 (Cytochrome P450 3A4) | Ki (Cytochrome P450 3A4)

COC(=O)Nc1nc2ccc(Sc3ccccc3)cc2[nH]1 [FENBENDAZOLE]
Not Active: IC50 [1] | Ki [1] | IC50 [2] | IC50 (Insulin receptor) | IC50 (Mu-type opioid receptor) | IC50 (Cathepsin G) | IC50 (Adenosine receptor A1) | IC50 (Cytochrome P450 3A4) | Ki (Cytochrome P450 3A4)

CC(C)(c1ccc(O)cc1)c1ccc(O)cc1 [BISPHENOL A]
Not Active: IC50 [1] | Ki [1] | IC50 [2] | IC50 (Insulin receptor) | IC50 (Mu-type opioid receptor) | IC50 (Cathepsin G) | IC50 (Adenosine receptor A1) | IC50 (Cytochrome P450 3A4) | Ki (Cytochrome P450 3A4)

NCC(CC(=O)O)c1ccc(Cl)cc1 (configuration not stated) [BACLOFEN]
Not Active: IC50 [1] | Ki [1] | IC50 [2] | IC50 (Insulin receptor) | IC50 (Mu-type opioid receptor) | IC50 (Cathepsin G) | IC50 (Adenosine receptor A1) | IC50 (Cytochrome P450 3A4) | Ki (Cytochrome P450 3A4)

CC[C@H]1OC(=O)[C@H](C)[C@@H](O[C@H]2C[C@@](C)(OC)[C@@H](O)[C@H](C)O2)[C@H](C)[C@@H](O[C@@H]2O[C@H](C)C[C@H](N(C)C)[C@H]2O)[C@](C)(O)C[C@@H](C)C(=O)[C@H](C)[C@@H](O)[C@]1(C)O [ERYTHROMYCIN]
Not Active: IC50 [1] | Ki [1] | IC50 [2] | IC50 (Insulin receptor) | IC50 (Mu-type opioid receptor) | IC50 (Cathepsin G) | IC50 (Adenosine receptor A1) | IC50 (Cytochrome P450 3A4) | Ki (Cytochrome P450 3A4)

C=CCO [ALLYL ALCOHOL]
Not Active: IC50 [1] | Ki [1] | IC50 [2] | IC50 (Insulin receptor) | IC50 (Cathepsin G) | IC50 (Adenosine receptor A1) | IC50 (Cytochrome P450 3A4) | Ki (Cytochrome P450 3A4)

C#C[C@]1(O)CC[C@H]2[C@@H]3CCC4=CC(=O)CC[C@@H]4[C@H]3CC[C@@]21C [NORETHINDRONE]
Not Active: IC50 [1] | Ki [1] | IC50 [2] | IC50 (Insulin receptor) | IC50 (Mu-type opioid receptor) | IC50 (Cathepsin G) | IC50 (Adenosine receptor A1)

CC(CN1c2ccccc2Sc2ccccc21)N(C)C (configuration not stated) [PROMETHAZINE]
Not Active: IC50 [1] | Ki [1] | IC50 [2] | IC50 (Insulin receptor) | IC50 (Mu-type opioid receptor) | IC50 (Cathepsin G) | IC50 (Adenosine receptor A1) | IC50 (Cytochrome P450 3A4) | Ki (Cytochrome P450 3A4)

COc1cc([C@@H]2c3cc4c(cc3[C@H](O)[C@H]3COC(=O)[C@H]23)OCO4)cc(OC)c1OC [PODOFILOX]
Not Active: IC50 [1] | Ki [1] | IC50 [2] | IC50 (Insulin receptor) | IC50 (Cathepsin G) | IC50 (Adenosine receptor A1)

NC(=O)CN1CCCC1=O
Not Active: IC50 [1] | Ki [1] | IC50 [2] | IC50 (Insulin receptor) | IC50 (Mu-type opioid receptor) | IC50 (Cathepsin G) | IC50 (Adenosine receptor A1) | IC50 (Cytochrome P450 3A4) | Ki (Cytochrome P450 3A4)

Nc1ccc(Cc2ccc(N)cc2)cc1
Not Active: IC50 [1] | Ki [1] | IC50 [2] | IC50 (Insulin receptor) | IC50 (Cathepsin G) | IC50 (Adenosine receptor A1) | IC50 (Cytochrome P450 3A4) | Ki (Cytochrome P450 3A4)

C[C@]12CC[C@@H](O)C[C@@H]1CC[C@@H]1[C@@H]2CC[C@]2(C)C(=O)CC[C@@H]12 [ANDROSTERONE]
Not Active: IC50 [1] | Ki [1] | IC50 [2] | IC50 (Insulin receptor) | IC50 (Mu-type opioid receptor) | IC50 (Cathepsin G) | IC50 (Adenosine receptor A1) | IC50 (Cytochrome P450 3A4) | Ki (Cytochrome P450 3A4)

C[C@H]1C[C@H]2[C@@H]3CCC4=CC(=O)C=C[C@]4(C)[C@@]3(F)[C@@H](O)C[C@]2(C)[C@@]1(O)C(=O)CO [BETAMETHASONE]
Not Active: IC50 [1] | Ki [1] | IC50 [2] | IC50 (Insulin receptor) | IC50 (Mu-type opioid receptor) | IC50 (Cathepsin G) | IC50 (Adenosine receptor A1)

CCN1CCN(c2cc3c(cc2F)c(=O)c(C(=O)O)cn3C2CC2)CC1 [ENROFLOXACIN]
Not Active: IC50 [1] | Ki [1] | IC50 [2] | IC50 (Insulin receptor) | IC50 (Mu-type opioid receptor) | IC50 (Cathepsin G) | IC50 (Adenosine receptor A1) | IC50 (Cytochrome P450 3A4) | Ki (Cytochrome P450 3A4)

CCN(CCO)CCCC(C)Nc1ccnc2cc(Cl)ccc12 (configuration not stated) [HYDROXYCHLOROQUINE]
Not Active: IC50 [1] | Ki [1] | IC50 [2] | IC50 (Insulin receptor) | IC50 (Mu-type opioid receptor) | IC50 (Cathepsin G) | IC50 (Adenosine receptor A1)

C[N+](C)(C)CCOC(N)=O.[Cl-] [CARBACHOL]
Not Active: IC50 [1] | Ki [1] | IC50 [2] | IC50 (Insulin receptor) | IC50 (Mu-type opioid receptor) | IC50 (Cathepsin G) | IC50 (Adenosine receptor A1) | IC50 (Cytochrome P450 3A4) | Ki (Cytochrome P450 3A4)

OC[C@H]1O[C@@H]2O[C@H]3[C@H](O)[C@@H](O)[C@@H](O[C@H]4[C@H](O)[C@@H](O)[C@@H](O[C@H]5[C@H](O)[C@@H](O)[C@@H](O[C@H]6[C@H](O)[C@@H](O)[C@@H](O[C@H]7[C@H](O)[C@@H](O)[C@@H](O[C@H]8[C@H](O)[C@@H](O)[C@@H](O[C@H]1[C@H](O)[C@H]2O)O[C@@H]8CO)O[C@@H]7CO)O[C@@H]6CO)O[C@@H]5CO)O[C@@H]4CO)O[C@@H]3CO [BETADEX]
Not Active: IC50 [1] | Ki [1] | IC50 [2] | IC50 (Insulin receptor) | IC50 (Mu-type opioid receptor) | IC50 (Cathepsin G) | IC50 (Adenosine receptor A1) | IC50 (Cytochrome P450 3A4) | Ki (Cytochrome P450 3A4)

COc1ccc(Cl)cc1C(=O)NCCc1ccc(S(=O)(=O)NC(=O)NC2CCCCC2)cc1 [GLYBURIDE]
Not Active: IC50 [1] | Ki [1] | IC50 [2] | IC50 (Insulin receptor) | IC50 (Mu-type opioid receptor) | IC50 (Cathepsin G) | IC50 (Adenosine receptor A1)

O=C(NCCN1CCOCC1)c1ccc(Cl)cc1 [MOCLOBEMIDE]
Not Active: IC50 [1] | Ki [1] | IC50 [2] | IC50 (Insulin receptor) | IC50 (Mu-type opioid receptor) | IC50 (Cathepsin G) | IC50 (Adenosine receptor A1) | IC50 (Cytochrome P450 3A4) | Ki (Cytochrome P450 3A4)

Reference: ChEMBL document CHEMBL1909046, “DrugMatrix in vitro pharmacology data”
